Measurements taken from patent publication US20250353874A1, “GLUCOCORTICOID RECEPTOR AGONISTS” (Eli Lilly and Company, priority 2021, published 2025).

The molecules below were run against hGR (GR-LBD) (Homo sapiens (Human), UniProt P04150) (assay: hGR CoActivator Recruitment Assay (LanthaScreen TR-Fret GR Coactivator Assay)). Conditions: 10-point dilution, top concentration 200 nM, positive control 4 uM dexamethasone, read-out: IC50.
Type: biochemical
Description: hGR CoActivator Recruitment Assay
The activity of glucocorticoid compounds was measured using the LanthaScreen TR-Fret GR Coactivator Assay from Life Technologies (A15899). The compounds were acoustically transferred to an assay plate in a 3-fold 10-point serial dilution with a top concentration of 200 nM. Ten microliters of a 2× solution of GR-LBD was added to the compound plate and incubated for 10 min. Then ten microliters of a 2× solution of Fluoresein-SRC1-4 and Tb labelled anti-GST antibody were added to the plate. The plate was incubated in the dark for two hours and then read on an Envision plate reader, with excitation at 340 nm and emission at 520 nm (Fluorescein) and 490 nm (Terbium). The emission ratio of 520/490 was analyzed in Genedata. To obtain percent activity, the data was compared to a negative control of DMSO and positive control of 4 uM dexamethasone.

Sequence of hGR (GR-LBD) (P04150 524-758): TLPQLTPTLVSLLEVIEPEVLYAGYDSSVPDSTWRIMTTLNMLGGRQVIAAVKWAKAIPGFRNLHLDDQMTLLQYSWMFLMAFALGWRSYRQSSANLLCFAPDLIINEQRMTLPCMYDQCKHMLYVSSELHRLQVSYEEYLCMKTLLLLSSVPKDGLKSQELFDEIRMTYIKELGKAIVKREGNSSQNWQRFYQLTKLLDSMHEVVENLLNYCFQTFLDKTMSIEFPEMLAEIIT

Row | Structure (SMILES) | IC50 [nM]
1 | Cc1ccc(OCc2cccc(N)c2)c(F)c1[C@@H]1O[C@@H]2C[C@H]3[C@@H]4CCC5=CC(=O)C=C[C@]5(C)[C@H]4[C@@H](O)C[C@]3(C)[C@]2(C(=O)CO)O1 [Example 1, (6aR,6bS,7S,8aS,8bS,10R,11aR,12aS,12bS)-10-(3-((3-Aminobenzyl)oxy)-2-fluoro-6-methylphenyl)-7-hydroxy-8b-(2-hydroxyacetyl)-6a,8a-dimethyl-1,2,6a,6b,7,8,8a,8b,11a,12,12a,12b-dodecahydro-4H-naphtho[2′,1′:4,5]indeno[1,2-d][1,3]dioxol-4-one] | 2.12
2 | Cc1ccc(OCc2cccc(N)c2)c(F)c1[C@H]1O[C@@H]2C[C@H]3[C@@H]4CCC5=CC(=O)C=C[C@]5(C)[C@H]4[C@@H](O)C[C@]3(C)[C@]2(C(=O)CO)O1 [Example 2, (6aR,6bS,7S,8aS,8bS,10S,11aR,12aS,12bS)-10-(3-((3-Aminobenzyl)oxy)-2-fluoro-6-methylphenyl)-7-hydroxy-8b-(2-hydroxyacetyl)-6a,8a-dimethyl-1,2,6a,6b,7,8,8a,8b,11a,12,12a,12b-dodecahydro-4H-naphtho[2′,1′:4,5]indeno[1,2-d][1,3]dioxol-4-one] | 1.44
3 | COc1ccc(OCc2cccc(N)c2)c(F)c1[C@@H]1O[C@@H]2C[C@H]3[C@@H]4CCC5=CC(=O)C=C[C@]5(C)[C@H]4[C@@H](O)C[C@]3(C)[C@]2(C(=O)CO)O1 [Example 4, (6aR,6bS,7S,8aS,8bS,10R,11aR,12aS,12bS)-10-(3-((3-Aminobenzyl)oxy)-2-fluoro-6-methoxyphenyl)-7-hydroxy-8b-(2-hydroxyacetyl)-6a,8a-dimethyl-1,2,6a,6b,7,8,8a,8b,11a,12,12a,12b-dodecahydro-4H-naphtho[2′,1′:4,5]indeno[1,2-d][1,3]dioxol-4-one] | 2.47
4 | COc1ccc(OCc2cccc(N)c2)c(F)c1[C@H]1O[C@@H]2C[C@H]3[C@@H]4CCC5=CC(=O)C=C[C@]5(C)[C@H]4[C@@H](O)C[C@]3(C)[C@]2(C(=O)CO)O1 [Example 5, (6aR,6bS,7S,8aS,8bS,10S,11aR,12aS,12bS)-10-(3-((3-Aminobenzyl)oxy)-2-fluoro-6-methoxyphenyl)-7-hydroxy-8b-(2-hydroxyacetyl)-6a,8a-dimethyl-1,2,6a,6b,7,8,8a,8b,11a,12,12a,12b-dodecahydro-4H-naphtho[2′,1′:4,5]indeno[1,2-d][1,3]dioxol-4-one] | 1.4

Same assay, conditions: top concentration 200 nM, read-out: relative IC50

Row | IC50 [nM] | Structure (SMILES)
5 | > 200 | C[C@]12C=CC(=O)C=C1CC[C@@H]1[C@@H]2[C@@H](O)C[C@@]2(C)[C@H]1C[C@H]1O[C@H](c3c(F)cccc3OCc3cccc(N)c3)O[C@]12C(=O)CO [Example 45, (6aR,6bS,7S,8aS,8bS,10S,11aR,12aS,12bS)-10-(2-((3-aminobenzyl)oxy)-6-fluorophenyl)-7-hydroxy-8b-(2-hydroxyacetyl)-6a,8a-dimethyl-1,2,6a,6b,7,8,8a,8b,11a,12,12a,12b-dodecahydro-4H-naphtho[2′,1′:4,5]indeno[1,2-d][1,3]dioxol-4-one]
6 | > 200 | C[C@]12C=CC(=O)C=C1CC[C@@H]1[C@@H]2[C@@H](O)C[C@@]2(C)[C@H]1C[C@H]1O[C@H](c3c(Cl)cccc3OCc3cccc(N)c3)O[C@]12C(=O)CO [Example 52, (6aR,6bS,7S,8aS,8bS,10S,11aR,12aS,12bS)-10-(2-((3-aminobenzyl)oxy)-6-chlorophenyl)-7-hydroxy-8b-(2-hydroxyacetyl)-6a,8a-dimethyl-1,2,6a,6b,7,8,8a,8b,11a,12,12a,12b-dodecahydro-4H-naphtho[2′,1′:4,5]indeno[1,2-d][1,3]dioxol-4-one]
7 | > 200 | Cc1ccc(OCc2ccccc2N)cc1[C@@H]1O[C@@H]2C[C@H]3[C@@H]4CCC5=CC(=O)C=C[C@]5(C)[C@H]4[C@@H](O)C[C@]3(C)[C@]2(C(=O)CO)O1 [Example 80, (6aR,6bS,7S,8aS,8bS,10R,11aR,12aS,12bS)-10-(5-((2-aminobenzyl)oxy)-2-methylphenyl)-7-hydroxy-8b-(2-hydroxyacetyl)-6a,8a-dimethyl-1,2,6a,6b,7,8,8a,8b,11a,12,12a,12b-dodecahydro-4H-naphtho[2′,1′:4,5]indeno[1,2-d][1,3]dioxol-4-one]
